Test results as given in publication PMC7181660, “A novel specific PERK activator reduces toxicity and extends survival in Huntington's disease models” (Scientific Reports, 2020).
Like-named read-outs stand apart in the source and are kept apart here.

Tests used:
Test in all cases: biochemical
Type in all cases: biochemical
[1] = target: panel of 391 kinases (Homo sapiens, UniProt P54756); details: EPHA5, MK-28 1 µM, ATP 1 µM
[2] = target: panel of 391 kinases (Homo sapiens, UniProt Q08345); details: DDR1, MK-28 1 µM, ATP 1 µM
[3] = target: panel of 391 kinases (Homo sapiens, UniProt Q8IWQ3); details: BRSK2, MK-28 1 µM, ATP 1 µM
[4] = target: panel of 391 kinases (Homo sapiens, UniProt P45984); details: JNK2, MK-28 1 µM, ATP 1 µM
[5] = target: panel of 391 kinases (Homo sapiens, UniProt P31749); details: AKT1, MK-28 1 µM, ATP 1 µM
[6] = target: panel of 391 kinases (Homo sapiens, UniProt O43781); details: DYRK3, MK-28 1 µM, ATP 1 µM
[7] = target: panel of 391 kinases (Homo sapiens, UniProt O94806); details: PKCnu/PRKD3, MK-28 1 µM, ATP 1 µM
[8] = target: panel of 391 kinases (Homo sapiens, UniProt Q9NRM7); details: LATS2, MK-28 1 µM, ATP 1 µM
[9] = target: panel of 391 kinases (Homo sapiens, UniProt Q86Y07); details: VRK2, MK-28 1 µM, ATP 1 µM
[10] = target: panel of 391 kinases (Homo sapiens, UniProt Q05513); details: PKCzeta, MK-28 1 µM, ATP 1 µM
[11] = target: panel of 391 kinases (Homo sapiens, UniProt O75460); details: ERN1/IRE1, MK-28 1 µM, ATP 1 µM
[12] = target: panel of 391 kinases (Homo sapiens, UniProt Q16654); details: kinase PDK4/PDKH4, compound at 1 µM, single dose in duplicates, 1 µM ATP
[13] = target: panel of 391 kinases (Homo sapiens, UniProt P43250); details: GRK6, MK-28 1 µM, ATP 1 µM
[14] = target: panel of 391 kinases (Homo sapiens, UniProt Q15208); details: STK38/NDR1, MK-28 1 µM, ATP 1 µM
[15] = target: panel of 391 kinases (Homo sapiens, UniProt P06493); details: MK-28 1 µM, ATP 1 µM; for remaining activity at 1 µM: read-out: % Enzyme Activity (relative to DMSO controls)
[16] = target: panel of 391 kinases (Homo sapiens, UniProt P37173); details: TGFBR2, MK-28 1 µM, ATP 1 µM
[17] = target: panel of 391 kinases (Homo sapiens, UniProt O60674); details: JAK2, MK-28 1 µM, ATP 1 µM
[18] = target: panel of 391 kinases (Homo sapiens, UniProt P22607); details: FGFR3, MK-28 1 µM, ATP 1 µM
[19] = target: panel of 391 kinases (Homo sapiens, UniProt O14757); details: CHK1, MK-28 1 µM, ATP 1 µM
[20] = target: panel of 391 kinases (Homo sapiens, UniProt Q9NRH2); details: SNRK, MK-28 1 µM, ATP 1 µM
[21] = target: panel of 391 kinases (Homo sapiens, UniProt P41743); details: PKCiota, MK-28 1 µM, ATP 1 µM
[22] = target: panel of 391 kinases (Homo sapiens, UniProt O00141); details: SGK1, MK-28 1 µM, ATP 1 µM
[23] = target: panel of 391 kinases (Homo sapiens, UniProt Q9BWU1); details: CDK19/cyclin C, MK-28 1 µM, ATP 1 µM
[24] = target: panel of 391 kinases (Homo sapiens, UniProt P54762); details: EPHB1, MK-28 1 µM, ATP 1 µM
[25] = target: panel of 391 kinases (Homo sapiens, UniProt Q00534); details: MK-28 1 µM, ATP 1 µM; for remaining activity at 1 µM: read-out: % Enzyme Activity (relative to DMSO controls)
[26] = target: panel of 391 kinases (Homo sapiens, UniProt Q96BR1); details: SGK3/SGKL, MK-28 1 µM, ATP 1 µM
[27] = read-out: % Enzyme Activity (relative to DMSO controls)

In the case of `CN(/N=C\c1ccc(O)c(O)c1)c1nc(-c2ccccc2)cc(-c2ccccc2)n1` [MK-28], the “% Enzyme Activity (relative to DMSO controls)” value [1] is reported as 98.83%, the remaining activity at 1 µM [1, 27] is reported as 103% and the “% Enzyme Activity (relative to DMSO controls)” value [2] is reported as 100.73%. The remaining activity at 1 µM [2, 27] was 103%, the “% Enzyme Activity (relative to DMSO controls)” value [3] was 99.36% and the remaining activity at 1 µM [3, 27] was 101%. For the same compound, the “% Enzyme Activity (relative to DMSO controls)” value [4] was 90.48%, the remaining activity at 1 µM [4, 27] was 90.8% and the “% Enzyme Activity (relative to DMSO controls)” value [5] was 95.66%. The remaining activity at 1 µM [5, 27] was 96.7%, the “% Enzyme Activity (relative to DMSO controls)” value [6] was 96.41% and the remaining activity at 1 µM [6, 27] was 97.5%. For the same compound, the “% Enzyme Activity (relative to DMSO controls)” value [7] was 97.83%, the remaining activity at 1 µM [7, 27] was 98.1% and the “% Enzyme Activity (relative to DMSO controls)” value [8] was 84.83%. For the same compound, the remaining activity at 1 µM [8, 27] was 88.2%, the “% Enzyme Activity (relative to DMSO controls)” value [9] was 96.44% and the remaining activity at 1 µM [9, 27] was 97%. For the same compound, the “% Enzyme Activity (relative to DMSO controls)” value [10] was 100.19%, the remaining activity at 1 µM [10, 27] was 100% and the “% Enzyme Activity (relative to DMSO controls)” value [11] was 104.22%. The remaining activity at 1 µM [11, 27] was 105%, the “% Enzyme Activity (relative to DMSO controls)” value [12] was 97.96% and the remaining activity at 1 µM [12, 27] was 98.2%. For the same compound, the “% Enzyme Activity (relative to DMSO controls)” value [13] was 102.17%, the remaining activity at 1 µM [13, 27] was 104% and the “% Enzyme Activity (relative to DMSO controls)” value [14] was 95.54%. The remaining activity at 1 µM [14, 27] was 96.8%, the “% Enzyme Activity (relative to DMSO controls)” value ([15]; CDK1/cyclin A) was 104.81% and the remaining activity at 1 µM ([15]; CDK1/cyclin A) was 105%. For the same compound, the “% Enzyme Activity (relative to DMSO controls)” value ([15]; CDK1/cyclin B) was 94.54%, the remaining activity at 1 µM ([15]; CDK1/cyclin B) was 95% and the “% Enzyme Activity (relative to DMSO controls)” value ([15]; CDK1/cyclin E) was 97.74%. For the same compound, the remaining activity at 1 µM ([15]; CDK1/cyclin E) was 97.8%, the “% Enzyme Activity (relative to DMSO controls)” value [16] was 94.50% and the remaining activity at 1 µM [16, 27] was 102%. The “% Enzyme Activity (relative to DMSO controls)” value [17] was 91.77%, the remaining activity at 1 µM [17, 27] was 93.8% and the “% Enzyme Activity (relative to DMSO controls)” value [18] was 103.07%. For the same compound, the remaining activity at 1 µM [18, 27] was 103%, the “% Enzyme Activity (relative to DMSO controls)” value [19] was 141.74% and the remaining activity at 1 µM [19, 27] was 150%. The “% Enzyme Activity (relative to DMSO controls)” value [20] was 99.62%, the remaining activity at 1 µM [20, 27] was 100% and the “% Enzyme Activity (relative to DMSO controls)” value [21] was 105.00%. The remaining activity at 1 µM [21, 27] was 105%, the “% Enzyme Activity (relative to DMSO controls)” value [22] was 103.26% and the remaining activity at 1 µM [22, 27] was 108%. The “% Enzyme Activity (relative to DMSO controls)” value [23] was 105.26%, the remaining activity at 1 µM [23, 27] was 108% and the “% Enzyme Activity (relative to DMSO controls)” value [24] was 96.23%. The remaining activity at 1 µM [24, 27] was 98.1%, the “% Enzyme Activity (relative to DMSO controls)” value ([25]; CDK6/cyclin D1) was 98.75% and the remaining activity at 1 µM ([25]; CDK6/cyclin D1) was 102%. For the same compound, the “% Enzyme Activity (relative to DMSO controls)” value ([25]; CDK6/cyclin D3) was 86.79%, the remaining activity at 1 µM ([25]; CDK6/cyclin D3) was 87.6% and the “% Enzyme Activity (relative to DMSO controls)” value [26] was 103.83%. It also gave a remaining activity at 1 µM [26, 27] of 105%.
